Results: US20220395549A1, “COMPOSITIONS OF THE OLEA EUROPAEA V. SYLVESTRIS WITH ANTIMICROBIAL EFFICACY” (TAPROGGE GMBH, priority 2019, published 2022)

How the values were obtained:
test microorganisms = details: cited from earlier work
S. aureus ATCC 6538 = assay: quantitative suspension assay of mono-substances; format: cell-based, Staphylococcus aureus; details: initial cell load 2.0 × 10^5 CFU/ml
Protocol: A stock solution was prepared by adding 0.1 ml methanol to 10.48 mg of hydroxytyrosol. After dissolving of the compound, the solution was quantitatively transferred into 4.9 ml water for injection (WFI), effective concentration of hydroxytyrosol: 2.0 mg/ml.
Using the stock solution, five (5) concentrations of hydroxytyrosol in a geometric series of 2 mg hydroxytyrosol/ml to 0.125 mg hydroxytyrosol/ml were tested in a quantitative suspension assay.
2 ml of the stock solution and the dilutions (V1 to V4), respectively, and a methanol-solution of 2% as a positive control were inoculated with 0.1 ml of a test suspension of S. aureus ATCC 6538, adjusted to about 2.0×10^5 CFU/0.1 ml, resulting in about 100,000 CFU/ml in the individual assays.
Samples (0.1 ml) were then taken at t 0, 12, 30, and 60 minutes as well as t 24 48, and 72 hours after inoculation and culturing at between 20-25° C., and were diluted with 0.9 ml of 0.9% NaCl solution. The samples were plated on blood agar plates, and incubated up to 5 days at between 30-35° C.
A stock solution was prepared at a concentration of 2 mg/ml of oleocanthal. The compound was dissolved by in ethanol (99.8%) and WFI was added.
Using the stock solution, concentrations of oleocanthal in a geometric series of 1 mg oleocanthal/ml to 0.125 mg oleocanthal/ml were tested in a quantitative suspension assay.
2 ml of the stock solution and the dilutions (V1 to V4), respectively, and a ethanol-solution of 2.85% as a positive control were inoculated with 0.055 ml of a test suspension of S. aureus ATCC 6538, adjusted to about 3.6×10^5 CFU/0.1 ml, resulting in about 99,000 CFU/ml in the individual assays.
A stock solution was prepared at a concentration of 1 mg/ml of oleacin. The compound was dissolved by in ethanol (99.8%) and WFI was added.
Using the stock solution, concentrations of oleacin at 0.25 mg oleacin/ml and 0.125 mg oleacin/ml were tested in a quantitative suspension assay.
2 ml of the stock solution and the dilutions (V1 and V2), respectively, and a ethanol-solution of 0.44% as a positive control were inoculated with 0.055 ml of a test suspension of S. aureus ATCC 6538, adjusted to about 3.5×10^5 CFU/0.1 ml, resulting in about 99,000 CFU/ml in the individual assays.
A stock solution was prepared by adding 0.1 ml chloroform to 25 mg of uvaol. After dissolving of the compound, the solution was quantitatively transferred into 12.4 ml water for injection (WFI), effective concentration of uvaol: 2.0 mg/ml.
Using the stock solution, five (5) concentrations of uvaol in a geometric series of 2 mg uvaol/ml to 0.125 mg uvaol/ml were tested in a quantitative suspension assay.
2 ml of the stock solution and the dilutions (V1 to V4), respectively, and a chloroform-solution of 0.8% as a positive control were inoculated with 0.1 ml of a test suspension of S. aureus ATCC 6538, adjusted to about 2.0×10^5 CFU/0.1 ml, resulting in about 100,000 CFU/ml in the individual assays.
A stock solution was prepared by adding 0.1 ml chloroform to 10.45 mg of erythrodiol. After dissolving of the compound, the solution was quantitatively transferred into 4.9 ml water for injection (WFI), effective concentration of erythrodiol: 2.0 mg/ml.
2 ml of the stock solution and the dilutions (V1 to V4), respectively, and a chloroform-solution of 2% as a positive control were inoculated with 0.1 ml of a test suspension of S. aureus ATCC 6538, adjusted to about 3.6×10^5 CFU/0.1 ml, resulting in about 100.000 CFU/ml in the individual assays.

For `COc1cc(C(=O)O)cc(OC)c1O` [syringic acid], the “antimicrobial activities of phenolic compounds” value (test microorganisms) is listed as “ineffective”.
With `C[C@H]1[C@H](C)CC[C@]2(CO)CC[C@]3(C)C(=CC[C@@H]4[C@@]5(C)CC[C@H](O)C(C)(C)[C@@H]5CC[C@]43C)[C@H]12` [uvaol] the “Number of CFUs” value (S. aureus ATCC 6538; 0.125 Uva/ml, t 0 min) was 6.3 × 10^4 CFU/ml, the “Number of CFUs” value (S. aureus ATCC 6538; 0.125 Uva/ml, t 12 min) was 5.7 × 10^4 CFU/ml and the “Number of CFUs” value (S. aureus ATCC 6538; 0.125 Uva/ml, t 30 min) was 7.6 × 10^4 CFU/ml. The “Number of CFUs” value (S. aureus ATCC 6538; 0.125 Uva/ml, t 60 min) was 6.6 × 10^4 CFU/ml, the “Number of CFUs” value (S. aureus ATCC 6538; 0.125 Uva/ml, t 24 h) was 4.7 × 10^3 CFU/ml and the “Number of CFUs” value (S. aureus ATCC 6538; 0.125 Uva/ml, t 48 h) was 4.2 × 10^3 CFU/ml. The “Number of CFUs” value (S. aureus ATCC 6538; 0.125 Uva/ml, t 72 h) was 8.2 × 10^2 CFU/ml, the “Number of CFUs” value (S. aureus ATCC 6538; 0.25 Uva/ml, t 0 min) was 5.3 × 10^4 CFU/ml and the “Number of CFUs” value (S. aureus ATCC 6538; 0.25 Uva/ml, t 12 min) was 8.1 × 10^4 CFU/ml. For the same molecule, the “Number of CFUs” value (S. aureus ATCC 6538; 0.25 Uva/ml, t 30 min) was 5.3 × 10^4 CFU/ml, the “Number of CFUs” value (S. aureus ATCC 6538; 0.25 Uva/ml, t 60 min) was 5.7 × 10^4 CFU/ml and the “Number of CFUs” value (S. aureus ATCC 6538; 0.25 Uva/ml, t 24 h) was under 100 CFU/ml. The “Number of CFUs” value (S. aureus ATCC 6538; 0.25 Uva/ml, t 48 h) was under 100 CFU/ml, the “Number of CFUs” value (S. aureus ATCC 6538; 0.25 Uva/ml, t 72 h) was under 100 CFU/ml and the “Number of CFUs” value (S. aureus ATCC 6538; 0.5 Uva/ml, t 0 min) was 7.0 × 10^4 CFU/ml. The “Number of CFUs” value (S. aureus ATCC 6538; 0.5 Uva/ml, t 12 min) was 7.8 × 10^4 CFU/ml, the “Number of CFUs” value (S. aureus ATCC 6538; 0.5 Uva/ml, t 30 min) was 7.6 × 10^4 CFU/ml and the “Number of CFUs” value (S. aureus ATCC 6538; 0.5 Uva/ml, t 60 min) was 5.7 × 10^4 CFU/ml. For the same molecule, the “Number of CFUs” value (S. aureus ATCC 6538; 0.5 Uva/ml, t 24 h) was under 100 CFU/ml, the “Number of CFUs” value (S. aureus ATCC 6538; 0.5 Uva/ml, t 48 h) was under 100 CFU/ml and the “Number of CFUs” value (S. aureus ATCC 6538; 0.5 Uva/ml, t 72 h) was under 100 CFU/ml. For the same molecule, the “Number of CFUs” value (S. aureus ATCC 6538; 1.0 Uva/ml, t 0 min) was 7.8 × 10^4 CFU/ml, the “Number of CFUs” value (S. aureus ATCC 6538; 1.0 Uva/ml, t 12 min) was 7.8 × 10^4 CFU/ml and the “Number of CFUs” value (S. aureus ATCC 6538; 1.0 Uva/ml, t 30 min) was 7.4 × 10^4 CFU/ml. The “Number of CFUs” value (S. aureus ATCC 6538; 1.0 Uva/ml, t 60 min) was 5.9 × 10^4 CFU/ml, the “Number of CFUs” value (S. aureus ATCC 6538; 1.0 Uva/ml, t 24 h) was under 100 CFU/ml and the “Number of CFUs” value (S. aureus ATCC 6538; 1.0 Uva/ml, t 48 h) was under 100 CFU/ml. The “Number of CFUs” value (S. aureus ATCC 6538; 1.0 Uva/ml, t 72 h) was under 100 CFU/ml, the “Number of CFUs” value (S. aureus ATCC 6538; 2.0 Uva/ml, t 0 min) was 7.2 × 10^4 CFU/ml and the “Number of CFUs” value (S. aureus ATCC 6538; 2.0 Uva/ml, t 12 min) was 5.9 × 10^4 CFU/ml. The “Number of CFUs” value (S. aureus ATCC 6538; 2.0 Uva/ml, t 30 min) was 7.0 × 10^4 CFU/ml, the “Number of CFUs” value (S. aureus ATCC 6538; 2.0 Uva/ml, t 60 min) was 7.0 × 10^4 CFU/ml and the “Number of CFUs” value (S. aureus ATCC 6538; 2.0 Uva/ml, t 24 h) was under 100 CFU/ml. The “Number of CFUs” value (S. aureus ATCC 6538; 2.0 Uva/ml, t 48 h) was under 100 CFU/ml and the “Number of CFUs” value (S. aureus ATCC 6538; 2.0 Uva/ml, t 72 h) was under 100 CFU/ml.
